Experiments:
[1] = molecular target: T1, MKK4 (Homo sapiens, UniProt P45985); test: KINOMEscan competition binding assay, MKK4 potency; conditions: concentration of 100 nM
T1 construct: S84/D399; host or cells: HEK-293
T1 sequence (P45985 84-399): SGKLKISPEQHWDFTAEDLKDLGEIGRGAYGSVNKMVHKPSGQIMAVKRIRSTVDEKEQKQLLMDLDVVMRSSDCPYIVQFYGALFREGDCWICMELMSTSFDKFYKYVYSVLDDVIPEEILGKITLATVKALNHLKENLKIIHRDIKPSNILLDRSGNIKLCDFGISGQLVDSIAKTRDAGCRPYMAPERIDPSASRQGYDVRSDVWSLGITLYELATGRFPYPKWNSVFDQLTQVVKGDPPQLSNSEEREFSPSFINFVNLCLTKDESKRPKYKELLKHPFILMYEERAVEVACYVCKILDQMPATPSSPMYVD
Summary of the method: (§1)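 DNA-tagged kinases expressed in HEK-293 cells compete between test compound and immobilized ligand on blocked beads. Bound kinase is eluted and quantified by qPCR of the DNA tag. Compounds were tested at the indicated final concentrations, prepared from 10 mM stocks.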

[2] = molecular target: T2, MKK4 active (Homo sapiens, UniProt P45985); test: Radiometric protein kinase assay, MKK4 active; assay type: biochemical; conditions: substrate JNK1 KRKR, ATP 0.2 μM, read-out: MKK4, potency derived from IC50-values
T2 construct: purchased ProQinase #0948-0000-1
T2 sequence (P45985 1-399): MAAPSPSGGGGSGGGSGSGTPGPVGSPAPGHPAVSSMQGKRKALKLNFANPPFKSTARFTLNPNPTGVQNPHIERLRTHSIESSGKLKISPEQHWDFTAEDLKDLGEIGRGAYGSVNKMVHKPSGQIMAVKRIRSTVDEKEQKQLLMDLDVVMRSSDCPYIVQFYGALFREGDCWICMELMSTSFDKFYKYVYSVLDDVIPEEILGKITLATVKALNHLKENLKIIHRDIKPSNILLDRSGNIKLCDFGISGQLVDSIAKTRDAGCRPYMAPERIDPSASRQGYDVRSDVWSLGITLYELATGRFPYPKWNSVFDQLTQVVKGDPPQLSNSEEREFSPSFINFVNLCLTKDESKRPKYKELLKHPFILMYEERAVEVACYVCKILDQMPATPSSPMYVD
Protocol: (§2) A radiometric protein kinase assay was used for measuring the kinase activity of the respective protein kinases. All kinase assays were performed in 96-well polypropylene plates. After the reactions were stopped, the assay mixtures were transferred to 96-well MSFC filter-plates (Millipore). The reaction mix was passed through the filter membrane by aspiration, the membrane was washed 3 times with 150 mM H3PO4, once with ethanol, dried and liquid scintillation cocktail was added. Radioactivity was determined by counting of the samples in a Microbeta multiwell scintillation counter (Wallac).

[3] = molecular target: BRaf (Homo sapiens, UniProt P15056); test: KINOMEscan competition binding assay, selectivity against off-target BRaf; conditions: concentration of 100 nM
Sequence of BRaf (P15056 whole entry): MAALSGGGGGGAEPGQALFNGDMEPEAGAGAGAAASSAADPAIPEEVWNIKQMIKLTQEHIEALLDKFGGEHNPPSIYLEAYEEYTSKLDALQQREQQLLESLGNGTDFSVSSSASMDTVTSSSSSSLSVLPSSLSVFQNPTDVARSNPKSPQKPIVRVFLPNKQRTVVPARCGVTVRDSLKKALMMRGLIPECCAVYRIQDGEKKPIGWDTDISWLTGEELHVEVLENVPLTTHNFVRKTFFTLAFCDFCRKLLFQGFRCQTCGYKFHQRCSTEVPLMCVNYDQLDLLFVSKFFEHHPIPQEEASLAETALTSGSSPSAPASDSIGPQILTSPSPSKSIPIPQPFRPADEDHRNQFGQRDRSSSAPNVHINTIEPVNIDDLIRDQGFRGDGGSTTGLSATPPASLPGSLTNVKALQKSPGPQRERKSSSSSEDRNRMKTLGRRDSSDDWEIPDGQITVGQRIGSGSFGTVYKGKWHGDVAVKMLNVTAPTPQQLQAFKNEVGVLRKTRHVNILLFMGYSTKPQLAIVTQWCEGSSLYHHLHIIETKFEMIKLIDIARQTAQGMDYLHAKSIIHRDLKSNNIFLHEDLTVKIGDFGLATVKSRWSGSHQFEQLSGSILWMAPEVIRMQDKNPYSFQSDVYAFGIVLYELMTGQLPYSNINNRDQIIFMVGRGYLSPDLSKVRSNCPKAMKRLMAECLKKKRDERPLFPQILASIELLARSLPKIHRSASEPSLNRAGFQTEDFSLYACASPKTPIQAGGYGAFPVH
Summary of the method: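 Competition binding: test compound competes with an immobilized ligand for DNA-tagged BRaf, and kinase captured on the ligand is quantified by qPCR of the DNA tag. Compounds from 10 mM stocks were tested at the indicated final concentrations.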

[4] = molecular target: T3, MEKK2 (Homo sapiens, UniProt Q9Y2U5); test: Radiometric protein kinase assay, MEKK2; assay type: biochemical; conditions: substrate Casein, ATP 0.2 μM; read-out: MEKK2, potency derived from IC50-values
T3 construct: purchased ProQinase #0583-0000-1
T3 sequence (Q9Y2U5 1-619): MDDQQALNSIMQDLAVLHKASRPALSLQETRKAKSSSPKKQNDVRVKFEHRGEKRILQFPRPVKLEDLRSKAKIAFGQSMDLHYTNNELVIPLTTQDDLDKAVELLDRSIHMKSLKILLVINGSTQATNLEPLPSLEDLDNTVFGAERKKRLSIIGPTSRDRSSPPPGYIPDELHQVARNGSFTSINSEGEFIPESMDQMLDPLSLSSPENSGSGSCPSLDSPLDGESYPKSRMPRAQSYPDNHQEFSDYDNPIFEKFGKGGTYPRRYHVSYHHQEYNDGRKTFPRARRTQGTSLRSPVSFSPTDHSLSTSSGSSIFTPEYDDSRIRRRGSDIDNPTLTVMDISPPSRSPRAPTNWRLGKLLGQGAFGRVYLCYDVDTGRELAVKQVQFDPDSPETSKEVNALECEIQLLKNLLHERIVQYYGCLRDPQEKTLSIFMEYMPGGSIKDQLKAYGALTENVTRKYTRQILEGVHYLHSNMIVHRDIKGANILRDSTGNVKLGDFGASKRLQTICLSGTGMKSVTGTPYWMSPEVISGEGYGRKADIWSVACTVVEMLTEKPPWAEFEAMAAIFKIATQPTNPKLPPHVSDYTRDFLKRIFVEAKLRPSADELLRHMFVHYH
Protocol: as §2

[5] = molecular target: T4, JNK1 (Homo sapiens, UniProt P45983); test: KINOMEscan competition binding assay, selectivity against off-target JNK1; conditions: concentration of 100 nM
T4 construct: M1/Q384; host or cells: HEK-293
T4 sequence (P45983 1-384 isoform P45983-2): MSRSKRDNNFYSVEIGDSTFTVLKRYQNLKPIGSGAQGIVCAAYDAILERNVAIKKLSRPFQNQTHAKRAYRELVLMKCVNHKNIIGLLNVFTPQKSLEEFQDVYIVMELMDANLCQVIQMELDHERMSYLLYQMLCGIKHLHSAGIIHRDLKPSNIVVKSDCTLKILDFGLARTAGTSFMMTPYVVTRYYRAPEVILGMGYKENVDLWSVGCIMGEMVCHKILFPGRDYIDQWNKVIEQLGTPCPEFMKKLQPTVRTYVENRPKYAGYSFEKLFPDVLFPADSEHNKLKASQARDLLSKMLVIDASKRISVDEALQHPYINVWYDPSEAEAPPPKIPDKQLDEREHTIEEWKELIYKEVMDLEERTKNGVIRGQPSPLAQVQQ
Summary of the method: as §1

[6] = molecular target: T5, MKK7 (Homo sapiens, UniProt O14733); test: KINOMEscan competition binding assay, selectivity against off-target MKK7; conditions: concentration of 100 nM
T5 construct: M1/R419; host or cells: HEK-293
T5 sequence (O14733 1-419): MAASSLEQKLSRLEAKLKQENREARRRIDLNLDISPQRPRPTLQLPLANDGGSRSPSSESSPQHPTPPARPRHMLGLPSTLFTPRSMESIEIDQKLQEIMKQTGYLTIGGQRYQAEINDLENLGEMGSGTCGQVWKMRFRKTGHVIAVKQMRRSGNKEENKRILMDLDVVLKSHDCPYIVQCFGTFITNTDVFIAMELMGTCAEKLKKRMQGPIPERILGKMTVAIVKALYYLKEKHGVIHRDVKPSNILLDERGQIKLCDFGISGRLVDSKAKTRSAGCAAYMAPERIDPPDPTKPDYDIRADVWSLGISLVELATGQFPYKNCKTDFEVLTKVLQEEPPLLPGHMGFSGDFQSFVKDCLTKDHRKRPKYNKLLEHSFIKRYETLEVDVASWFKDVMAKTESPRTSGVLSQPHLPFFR
Summary of the method: as §1

[7] = molecular target: T6, MKK4-MEKK2 mix (Homo sapiens, UniProt P45985); test: Radiometric protein kinase assay, MEKK2 dependent MKK4 activation (cascade); assay type: biochemical; conditions: substrate JNK1 KRKR, ATP 0.2 μM, read-out: Cascade, potency derived from IC50-values
T6 construct: MEKK2, recombinant, active: ProQinase product #0583-0000-1
T6 sequence (P45985 2-399): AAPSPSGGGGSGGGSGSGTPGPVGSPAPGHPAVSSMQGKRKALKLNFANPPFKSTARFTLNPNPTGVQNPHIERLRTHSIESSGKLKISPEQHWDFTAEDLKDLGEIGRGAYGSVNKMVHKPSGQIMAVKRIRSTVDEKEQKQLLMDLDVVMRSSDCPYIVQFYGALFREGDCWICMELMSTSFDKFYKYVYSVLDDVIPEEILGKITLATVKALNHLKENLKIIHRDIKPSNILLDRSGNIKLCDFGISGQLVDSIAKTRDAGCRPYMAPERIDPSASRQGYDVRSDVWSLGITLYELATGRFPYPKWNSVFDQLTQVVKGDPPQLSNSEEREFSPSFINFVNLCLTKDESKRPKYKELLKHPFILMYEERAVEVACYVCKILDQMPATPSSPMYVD
Protocol: The activation step is done in 50 mM HEPES pH 7.5, 50 mM NaCl, 3.8 mM MgCl2, 2.5 mM DTT, 10% (v/v) glycerol. Final DMSO concentration is 1%. The activation mixture is pipetted in the following order • 2.5 μl compound in 4% DMSO • 2.5 μl ATP/MgCl2 mix • 5 μl premixed kinase solution MKK4:MEKK2 10:1 (w/w)
Protein concentrations in the activation mix are 1 μM MKK4 and 50 nM MEKK2.
as §2

Row | SMILES | MKK4, residual percent of control binding (PoC) [1] | IC50 [2] | Selectivity vs. BRaf, ratio PoC(BRaf)/PoC(MKK4) [3] | IC50 [4] | Selectivity vs. JNK1, ratio PoC(JNK1)/PoC(MKK4) [5] | Selectivity vs. MKK7, ratio PoC(MKK7)/PoC(MKK4) [6] | IC50 [7]
1 | CCCS(=O)(=O)Nc1ccc(F)c(C(=O)c2n[nH]c3ncc(-c4ccccc4)cc23)c1F [Example 2, N-(2,4-difluoro-3-(5-phenyl-1H-pyrazolo[3,4-b]pyridine-3-carbonyl)phenyl)propane-1-sulfonamide] | ++ (1 ≤ PoC < 10) | < 500 nM | ++ (30 > PoC(BRaf)/PoC(MKK4) ≥ 10) | > 10000 nM | ++ (30 > PoC(JNK1)/PoC(MKK4) ≥ 10) | +++ (PoC(MKK7)/PoC(MKK4) ≥ 30) | 1000 to 10000 nM
2 | CCCS(=O)(=O)Nc1ccc(F)c(C(=O)c2n[nH]c3ncc(-c4ccc(N(C)C)cc4)cc23)c1F [Example 8, N-(3-(5-(4-(dimethylamino)-phenyl)-1H-pyrazolo[3,4-b]pyridine-3-carbonyl)-2,4-difluorophenyl)-propane-1-sulfonamide] | ++ (1 ≤ PoC < 10) | 1000 to 10000 nM | O (PoC(BRaf)/PoC(MKK4) < 3) | > 10000 nM | +++ (PoC(JNK1)/PoC(MKK4) ≥ 30) | +++ (PoC(MKK7)/PoC(MKK4) ≥ 30) | > 10000 nM
3 | CCCS(=O)(=O)Nc1ccc(F)c(C(=O)c2n[nH]c3ncc(-c4ccccc4Cl)cc23)c1F [Example 9, N-(3-(5-(2-chlorophenyl)-1H-pyrazolo[3,4-b]pyridine-3-carbonyl)-2,4-difluorophenyl)-propane-1-sulfonamide] | ++ (1 ≤ PoC < 10) | 500 to 1000 nM | + (10 > PoC(BRaf)/PoC(MKK4) ≥ 3) | 1000 to 10000 nM | ++ (30 > PoC(JNK1)/PoC(MKK4) ≥ 10) | ++ (30 > PoC(MKK7)/PoC(MKK4) ≥ 10) | 1000 to 10000 nM
4 | CCCS(=O)(=O)Nc1ccc(F)c(C(=O)c2n[nH]c3ncc(-c4ccccc4C)cc23)c1F [Example 13, N-(2,4-difluoro-3-(5-o-tolyl-1H-pyrazolo[3,4-b]pyridine-3-carbonyl)-phenyl)propane-1-sulfon-amide] | ++ (1 ≤ PoC < 10) | < 500 nM | + (10 > PoC(BRaf)/PoC(MKK4) ≥ 3) | 1000 to 10000 nM | ++ (30 > PoC(JNK1)/PoC(MKK4) ≥ 10) | ++ (30 > PoC(MKK7)/PoC(MKK4) ≥ 10) | 1000 to 10000 nM
